# Assay results reported in PubChem BioAssay (NCI).
#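 In this assay, cells in 96-well plates receive the compound at five concentrations for 48 hours. Endpoints are linearly interpolated between the surrounding concentrations. TGI marks complete inhibition of growth.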
# How the values were obtained:
# Test in all cases: NCI tumour cell line growth inhibition, 48 h
# SNB-75 CNS = test system: SNB-75 CNS
# OVCAR-8 ovarian = test system: OVCAR-8 ovarian
# NCI/ADR-RES ovarian = test system: NCI/ADR-RES ovarian
# RPMI-8226 leukemia = test system: RPMI-8226 leukemia
# HOP-92 NSCLC = test system: HOP-92 NSCLC
# M14 melanoma = test system: M14 melanoma
# MDA-MB-435 = test system: MDA-MB-435
# NCI-H460 lung = test system: NCI-H460 lung
# HCT-15 colon = test system: HCT-15 colon
# MALME-3M melanoma = test system: MALME-3M melanoma
# HOP-62 NSCLC = test system: HOP-62 NSCLC
# IGROV1 ovarian = test system: IGROV1 ovarian
# NCI-H23 lung = test system: NCI-H23 lung
# UACC-257 melanoma = test system: UACC-257 melanoma
# SK-MEL-5 melanoma = test system: SK-MEL-5 melanoma
# DU-145 prostate = test system: DU-145 prostate
# ACHN renal = test system: ACHN renal
# CCRF-CEM leukemia = test system: CCRF-CEM leukemia
# MOLT-4 leukemia = test system: MOLT-4 leukemia
# CAKI-1 renal = test system: CAKI-1 renal
# SF-268 CNS = test system: SF-268 CNS
# TK-10 renal = test system: TK-10 renal
# OVCAR-4 ovarian = test system: OVCAR-4 ovarian
# KM12 colon = test system: KM12 colon
# NCI-H522 lung = test system: NCI-H522 lung
# HL-60(TB) leukemia = test system: HL-60(TB) leukemia
# HCT-116 colon = test system: HCT-116 colon
# SW-620 colon = test system: SW-620 colon
# OVCAR-3 ovarian = test system: OVCAR-3 ovarian
# K-562 leukemia = test system: K-562 leukemia
# HT29 colon = test system: HT29 colon
# MDA-MB-231 breast = test system: MDA-MB-231 breast
# SF-539 CNS = test system: SF-539 CNS
# SK-OV-3 ovarian = test system: SK-OV-3 ovarian
# SK-MEL-28 melanoma = test system: SK-MEL-28 melanoma
# COLO 205 colon = test system: COLO 205 colon
# BT-549 breast = test system: BT-549 breast
# SF-295 CNS = test system: SF-295 CNS
# OVCAR-5 ovarian = test system: OVCAR-5 ovarian
# EKVX NSCLC = test system: EKVX NSCLC
# LOX IMVI melanoma = test system: LOX IMVI melanoma
# SN12C renal = test system: SN12C renal
# UACC-62 melanoma = test system: UACC-62 melanoma
# 786-0 renal = test system: 786-0 renal
# T-47D breast = test system: T-47D breast
# MCF7 breast = test system: MCF7 breast
# NCI-H226 lung = test system: NCI-H226 lung
# SK-MEL-2 melanoma = test system: SK-MEL-2 melanoma
# A549 NSCLC = test system: A549 NSCLC
# SNB-19 CNS = test system: SNB-19 CNS
# A498 renal = test system: A498 renal
# U251 CNS = test system: U251 CNS
# PC-3 prostate = test system: PC-3 prostate
# MDA-N = test system: MDA-N
# HCC-2998 colon = test system: HCC-2998 colon
# SR leukemia = test system: SR leukemia
# RXF 393 renal = test system: RXF 393 renal
# UO-31 renal = test system: UO-31 renal
# HS 578T breast = test system: HS 578T breast
smiles,measurement,setting,value
COc1cccc(-n2nnc3c(N)nc(N)nc32)c1,TGI,SNB-75 CNS,> 100 µM
same,TGI,OVCAR-8 ovarian,> 100 µM
same,TGI,NCI/ADR-RES ovarian,> 100 µM
same,TGI,RPMI-8226 leukemia,> 100 µM
same,TGI,HOP-92 NSCLC,> 100 µM
same,TGI,M14 melanoma,> 100 µM
same,TGI,MDA-MB-435,> 100 µM
same,TGI,NCI-H460 lung,> 100 µM
same,TGI,HCT-15 colon,> 100 µM
same,TGI,MALME-3M melanoma,> 100 µM
same,TGI,HOP-62 NSCLC,> 100 µM
same,TGI,IGROV1 ovarian,> 100 µM
same,TGI,NCI-H23 lung,76.3 µM
same,TGI,UACC-257 melanoma,> 100 µM
same,TGI,SK-MEL-5 melanoma,> 100 µM
same,TGI,DU-145 prostate,> 100 µM
same,TGI,ACHN renal,> 100 µM
same,TGI,CCRF-CEM leukemia,> 100 µM
same,TGI,MOLT-4 leukemia,> 100 µM
same,TGI,CAKI-1 renal,> 100 µM
same,TGI,SF-268 CNS,> 100 µM
same,TGI,TK-10 renal,> 100 µM
same,TGI,OVCAR-4 ovarian,> 100 µM
same,TGI,KM12 colon,> 100 µM
same,TGI,NCI-H522 lung,> 100 µM
same,TGI,HL-60(TB) leukemia,> 100 µM
same,TGI,HCT-116 colon,> 100 µM
same,TGI,SW-620 colon,> 100 µM
same,TGI,OVCAR-3 ovarian,> 100 µM
same,TGI,K-562 leukemia,> 100 µM
same,TGI,HT29 colon,> 100 µM
same,TGI,MDA-MB-231 breast,> 100 µM
same,TGI,SF-539 CNS,> 100 µM
same,TGI,SK-OV-3 ovarian,> 100 µM
same,TGI,SK-MEL-28 melanoma,> 100 µM
same,TGI,COLO 205 colon,> 100 µM
same,TGI,BT-549 breast,> 100 µM
same,TGI,SF-295 CNS,> 100 µM
same,TGI,OVCAR-5 ovarian,> 100 µM
same,TGI,EKVX NSCLC,> 100 µM
same,TGI,LOX IMVI melanoma,> 100 µM
same,TGI,SN12C renal,> 100 µM
same,TGI,UACC-62 melanoma,> 100 µM
same,TGI,786-0 renal,> 100 µM
same,TGI,T-47D breast,> 100 µM
same,TGI,MCF7 breast,> 100 µM
same,TGI,NCI-H226 lung,> 100 µM
same,TGI,SK-MEL-2 melanoma,> 100 µM
same,TGI,A549 NSCLC,> 100 µM
same,TGI,SNB-19 CNS,> 100 µM
same,TGI,A498 renal,> 100 µM
same,TGI,U251 CNS,> 100 µM
same,TGI,PC-3 prostate,> 100 µM
same,TGI,MDA-N,> 100 µM
CCCCc1ccc(N2C(=O)c3cc(C)cnc3S2(=O)=O)cc1,TGI,SNB-75 CNS,> 100 µM
same,TGI,OVCAR-8 ovarian,> 100 µM
same,TGI,NCI/ADR-RES ovarian,> 100 µM
same,TGI,RPMI-8226 leukemia,> 100 µM
same,TGI,HOP-92 NSCLC,> 100 µM
same,TGI,M14 melanoma,> 100 µM
same,TGI,MDA-MB-435,> 100 µM
same,TGI,NCI-H460 lung,> 100 µM
same,TGI,HCT-15 colon,> 100 µM
same,TGI,MALME-3M melanoma,> 100 µM
same,TGI,HOP-62 NSCLC,> 100 µM
same,TGI,IGROV1 ovarian,> 100 µM
same,TGI,NCI-H23 lung,> 100 µM
same,TGI,SK-MEL-5 melanoma,> 100 µM
same,TGI,DU-145 prostate,> 100 µM
same,TGI,ACHN renal,> 100 µM
same,TGI,MOLT-4 leukemia,> 100 µM
same,TGI,SF-268 CNS,> 100 µM
same,TGI,HCC-2998 colon,> 100 µM
same,TGI,SR leukemia,> 100 µM
same,TGI,RXF 393 renal,> 100 µM
same,TGI,OVCAR-4 ovarian,> 100 µM
same,TGI,KM12 colon,> 100 µM
same,TGI,NCI-H522 lung,> 100 µM
same,TGI,HL-60(TB) leukemia,> 100 µM
same,TGI,HCT-116 colon,> 100 µM
same,TGI,SW-620 colon,> 100 µM
same,TGI,OVCAR-3 ovarian,> 100 µM
same,TGI,K-562 leukemia,> 100 µM
same,TGI,HT29 colon,> 100 µM
same,TGI,MDA-MB-231 breast,> 100 µM
same,TGI,SK-OV-3 ovarian,> 100 µM
same,TGI,SK-MEL-28 melanoma,> 100 µM
same,TGI,COLO 205 colon,> 100 µM
same,TGI,SF-295 CNS,> 100 µM
same,TGI,OVCAR-5 ovarian,> 100 µM
same,TGI,EKVX NSCLC,> 100 µM
same,TGI,LOX IMVI melanoma,> 100 µM
same,TGI,SN12C renal,> 100 µM
same,TGI,786-0 renal,> 100 µM
same,TGI,T-47D breast,> 100 µM
same,TGI,MCF7 breast,> 100 µM
same,TGI,NCI-H226 lung,> 100 µM
same,TGI,SK-MEL-2 melanoma,> 100 µM
same,TGI,A549 NSCLC,> 100 µM
same,TGI,SNB-19 CNS,> 100 µM
same,TGI,UO-31 renal,> 100 µM
same,TGI,U251 CNS,> 100 µM
same,TGI,HS 578T breast,> 100 µM
same,TGI,PC-3 prostate,> 100 µM
same,TGI,MDA-N,> 100 µM
CCCCCCc1cc(C=O)sc1-c1ccc(-c2sc(-c3ccc(-c4ccc(-c5cc(CCCCCC)c(-c6ccc(-c7sc(C=O)cc7CCCCCC)s6)s5)s4)s3)cc2CCCCCC)s1,TGI,OVCAR-8 ovarian,> 100 µM
same,TGI,NCI/ADR-RES ovarian,> 100 µM
same,TGI,RPMI-8226 leukemia,> 100 µM
same,TGI,HOP-92 NSCLC,> 100 µM
same,TGI,M14 melanoma,> 100 µM
same,TGI,MDA-MB-435,> 100 µM
same,TGI,NCI-H460 lung,> 100 µM
same,TGI,HCT-15 colon,> 100 µM
same,TGI,MALME-3M melanoma,> 100 µM
same,TGI,HOP-62 NSCLC,> 100 µM
same,TGI,IGROV1 ovarian,> 100 µM
same,TGI,NCI-H23 lung,> 100 µM
same,TGI,UACC-257 melanoma,> 100 µM
same,TGI,SK-MEL-5 melanoma,> 100 µM
same,TGI,DU-145 prostate,> 100 µM
same,TGI,ACHN renal,> 100 µM
same,TGI,CCRF-CEM leukemia,> 100 µM
same,TGI,MOLT-4 leukemia,> 100 µM
same,TGI,CAKI-1 renal,> 100 µM
same,TGI,SF-268 CNS,> 100 µM
same,TGI,HCC-2998 colon,> 100 µM
same,TGI,SR leukemia,> 100 µM
same,TGI,TK-10 renal,> 100 µM
same,TGI,RXF 393 renal,> 100 µM
same,TGI,OVCAR-4 ovarian,> 100 µM
same,TGI,KM12 colon,> 100 µM
same,TGI,NCI-H522 lung,> 100 µM
same,TGI,HL-60(TB) leukemia,> 100 µM
same,TGI,HCT-116 colon,> 100 µM
same,TGI,SW-620 colon,> 100 µM
same,TGI,OVCAR-3 ovarian,> 100 µM
same,TGI,K-562 leukemia,> 100 µM
same,TGI,HT29 colon,> 100 µM
same,TGI,MDA-MB-231 breast,> 100 µM
same,TGI,SF-539 CNS,> 100 µM
same,TGI,SK-OV-3 ovarian,> 100 µM
same,TGI,SK-MEL-28 melanoma,> 100 µM
same,TGI,COLO 205 colon,> 100 µM
same,TGI,BT-549 breast,> 100 µM
same,TGI,SF-295 CNS,> 100 µM
same,TGI,OVCAR-5 ovarian,> 100 µM
same,TGI,EKVX NSCLC,> 100 µM
same,TGI,LOX IMVI melanoma,> 100 µM
same,TGI,SN12C renal,> 100 µM
same,TGI,UACC-62 melanoma,> 100 µM
same,TGI,786-0 renal,> 100 µM
same,TGI,T-47D breast,> 100 µM
same,TGI,MCF7 breast,> 100 µM
same,TGI,NCI-H226 lung,> 100 µM
same,TGI,SK-MEL-2 melanoma,> 100 µM
same,TGI,A549 NSCLC,> 100 µM
same,TGI,SNB-19 CNS,> 100 µM
same,TGI,UO-31 renal,> 100 µM
same,TGI,A498 renal,> 100 µM
same,TGI,U251 CNS,> 100 µM
same,TGI,PC-3 prostate,> 100 µM
same,TGI,MDA-N,> 100 µM
